Reference: patent publication US20230023026A1, “METHODS FOR TREATMENT OF DAMAGED BILIARY DUCT” (Mor Research Applications Ltd., priority 2020, published 2023)
Entries after “also recorded” stand apart in the source; their conditions may differ.

Key:
[1] = system: EHBD explants from Mdr2−/− mice; experiment: Ex-vivo bile duct explant culture of Mdr2−/− EHBDs treated with L-NAC (H&E, K19/ZO-1 immunostaining, DAPI); assay type: cell-based, mouse
Experimental: Intact extrahepatic bile ducts (EHBDs) from 2-week (N≥12) and 16-week (N≥5) old mice were dissected, placed in ice-cold V-7 cold preservation buffer (Vitron) followed by incubation in cholangiocyte medium (also termed herein “BEC medium”), according to a modification of the protocol described by Karjoo and Wells (Isolation of neonatal extrahepatic cholangiocytes. J. Vis. Exp. 2014). Ducts were placed on roller inserts, treated with N-Acetyl-L-cysteine (L-NAC) and other compounds as noted below, and cultured in a high oxygenation Vitron Dynamic Organ Culture Incubator at 37° C., in 95% O2 and 5% CO2, for 1-3 days. In the incubator (designed to optimally incubate tissue slices), the explants rotated and were exposed to alternating periods in medium and 95% oxygen/5% CO2. Thin slices of tissue remained viable without visible damage or evidence of necrosis or apoptosis for at least 3 days.
1. Histological H&E staining of cells of ducts tissue was performed according to standard staining protocol, using two dyes: the basic dye haemotoxylin and the acidic dye eosin. Eosin reacted with cationic or basic components (also termed “acidophilic”) and stained red or pink acidophilic structures (e.g., cytoplasmic proteins, intracellular membranes, and extracellular fibers). Haematoxylin, reacted with anionic or acidic components (also termed “basophilic”) in cells and, when used in combination with aluminum ions (Al^3+), stained purplish blue basophilic structures (e.g., the nucleic acids in the nucleus and parts of the cytoplasm that contain RNA (e.g., ribosomes and the rough endoplasmic reticulum)). EHBDs were fixed in 4% paraformaldehyde (PFA) and embedded in paraffin, then sections (4-μm thick) were cut and stained with H&E.
3. Immunostaining or immunohistochemistry (IHC), which combines anatomical, immunological and biochemical techniques, was conducted in order to image discrete components in EHBDs tissues by using appropriately labeled antibodies that bind specifically to their target antigens in situ Immunohistochemistry made it possible to visualize the high-resolution distribution and localization of specific cellular components within cholangiocytes and within their proper histological context Immunostaining methodology included two main steps: sample preparation and sample staining. In the preparation step, ducts were fixed at 4% PFA for the preservation of cell morphology and tissue architecture. Thin sections of tissues (4-μm thick) attached to individual glass slides where then immunostained as described e.g., in Dipaola et al., 2013 (Hepatology 58:1486-1496, 2013), using antibodies against the cholangiocyte marker keratin 19 (K19, 1:10, Developmental Studies Hybridoma Bank, TROMAIII) and ZO-1 tight junction protein (anti-ZO1 antibody ab96587; Abcam).
4. […]

[2] = system: Mdr2−/− mice; experiment: In vivo treatment of Mdr2−/− mice with L-NAC in drinking water, liver histology (H&E, Sirius Red); design: species or system mouse; details: 4-month old Mdr2−/− mice, 30 gr/L L-NAC in drinking water for 3 weeks
Description: The homozygote, multidrug resistance protein 2 knockout mouse (Mdr2KO or Mdr2^−/−, also known as Abcb4^−/−) lacks the protein MDR2, a canalicular phospholipid flippase that causes a complete absence of phosphatidylcholine in bile. Mdr2^−/− mice are a well-established model for biliary ducts diseases resulting from, or associated with, highly toxic bile. Multidrug resistance P-glycoproteins, Mdr2 in mouse and MDR3 in human, are choline-containing phospholipid phosphatidylcholine (PC) transporters. In the liver, Mdr2/MDR3 are involved in the translocation of PC from the inner leaflet to the outer leaflet of the canalicular membrane of hepatocytes for direct extraction by bile acids. Bile acids and PC are essential components in the bile that form bile acid containing micelles to thereby reduce the toxic detergent activity of bile acid for hepatocytes and cholangiocytes and to establish physiological bile flow. Mdr2 knockout mouse successively develops liver inflammation, hepatic fibrosis, and hepatocellular carcinoma (HCC) at late ages. The pathogenesis in Mdr2^−/− mice is commonly considered to be caused by increased levels of free toxic bile acids in the biliary canaliculus, which damages hepatocytes and cholangiocytes and provokes liver inflammation. This cholangiopathy is similar to human PSC. The wild type and Mdr2 knockout mice used in embodiments described herein are male and female mice of FVB genetic background (FVB/N and FVB/Mdr2^−/− mice, respectively). All mice were maintained under specific pathogen-free conditions with a 12-hour-light-dark cycle and permitted ad libitum consumption of water and a standard chow. FVB/Mdr2^−/− mice are reproducible model of spontaneously progressive chronic biliary liver disease associated with fibrosis, with histological lesions closely resembling human PSC. Though the Mdr2^−/− mouse is well-established for the investigation of PSC, little is known about EHBD injury in this model. 1. […] The liver repair effect in Mdr2^−/− mice treated with L-NAC was assessed. […]

## CC(=O)N[C@@H](CS)C(=O)O [L-NAC, N-acetyl-L-cysteine]
[1]; EHBDs from 2-week old Mdr2−/− mice, 5 μM L-NAC in fresh BEC medium, 24 hours
  histological damage, including coarse chromatin and nuclear crowding (H&E): improved
[1]; EHBDs from 2-week old Mdr2−/− mice, 5 μM L-NAC, 24 hours
  expression of the tight junction protein ZO-1 (immunostaining): restored apical tight junction expression
[1]; EHBDs from 16-week old Mdr2−/− mice, 5 μM L-NAC, 24 hours
  restoration of the apical tight junction ZO-1 (immunostaining): not seen; also recorded: poor ZO-1 restoration
[1]; Mdr2−/− EHBD explants, L-NAC and fresh BEC media for 24 hours
  duct architecture / morphology (H&E): improved duct architecture with a more normal appearing columnar epithelium; also recorded: substantial morphological recovery
[2]
  inflammatory cell infiltration around the portal areas (H&E): reduction in inflammatory cell infiltration
  portal fibrosis in liver (H&E): reduced portal fibrosis
[2]; vs untreated mouse
  liver fibrosis (Sirius Red staining): reduction in liver fibrosis
